Results from patent US20180064730A1 (priority 2014, published 2018).
Values joined by “and” are separate entries in the source; they are usually repeats but may differ in a detail not shown here. Identical values can stand only once. “Also recorded” adds a separate entry of the source. Like-named read-outs stand apart in the source and are kept apart here.

Key:
[1] = test system: IL-8 secretion from CF lung epithelial cells; test: Suppression of constitutive IL-8 secretion from CF lung epithelial cells; type: cell-based, human; conditions: for IC50: constitutive IL-8 hypersecretion, read-out: K50 (concentration causing a 50% reduction of IL-8 secretion)
Source text: Analysis of cardiac glycoside activities identifies a structure-activity-relationship for IL-8 suppression. […] Using all the data we were also able to derive a structure-activity relationship (see Table 1). Briefly, suppression of IL-8 secretion from CF lung epithelial cells is optimally promoted by the presence of glycosyl moieties at the 3-position of the cholesterol nucleus, and by the absence of oxygen-containing substitutions at or near the 12-position on the C ring. Activity declines when glycosyl moieties are absent from the 3-position, and when oxygen-containing substitutions are made at or near the 12-position on the C ring. […] We therefore give the equatorial 12-position and its neighbors crucial negative pharmacophoric importance, and glycosidic substitution at the 3-position positive pharmacophoric importance for the control of IL-8 secretion from CF lung epithelial cells.
(§1) Previously published data had implicated a dysfunctional TNFα/NFκB signaling pathway as responsible for the pro-inflammatory phenotype of the CF lung. […] (46 Srivastava et al, 2004) (47 Yang Q, et al, 2005).

[2] = cited from earlier work
[3] = molecular target: T1, TNF-alpha-activated TNFR and TRADD (Homo sapiens, UniProt P19438+Q15628); test: Interaction between TNF-alpha-activated TNFR and TRADD
T1 sequence (Q15628 1-312): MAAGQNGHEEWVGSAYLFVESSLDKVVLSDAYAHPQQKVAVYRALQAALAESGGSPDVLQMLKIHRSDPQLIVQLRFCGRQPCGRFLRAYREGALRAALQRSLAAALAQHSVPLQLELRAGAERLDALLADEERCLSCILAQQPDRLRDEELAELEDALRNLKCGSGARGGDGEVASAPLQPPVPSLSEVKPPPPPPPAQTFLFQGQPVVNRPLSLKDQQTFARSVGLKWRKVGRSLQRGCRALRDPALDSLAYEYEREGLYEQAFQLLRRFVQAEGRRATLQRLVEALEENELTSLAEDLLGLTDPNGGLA
T1 sequence (P19438 22-455 limits assumed): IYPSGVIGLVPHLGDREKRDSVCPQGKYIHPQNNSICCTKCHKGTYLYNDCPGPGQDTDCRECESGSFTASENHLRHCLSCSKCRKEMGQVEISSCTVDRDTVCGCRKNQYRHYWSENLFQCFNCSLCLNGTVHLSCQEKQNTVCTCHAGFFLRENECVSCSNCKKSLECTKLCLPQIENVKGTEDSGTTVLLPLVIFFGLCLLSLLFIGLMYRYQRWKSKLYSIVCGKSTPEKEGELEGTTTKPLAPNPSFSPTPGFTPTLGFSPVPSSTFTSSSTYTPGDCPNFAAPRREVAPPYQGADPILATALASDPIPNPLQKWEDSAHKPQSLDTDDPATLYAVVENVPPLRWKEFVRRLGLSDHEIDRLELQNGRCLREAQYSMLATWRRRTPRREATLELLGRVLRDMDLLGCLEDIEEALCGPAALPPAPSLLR
Source text: Increased expression of TRADD is associated with a greater rate of decline in CF lung function. […] Trend-lines are based on data for female CF patients, who make up the majority of the patients.

[4] = test system: control patients / heart failure patients; conditions: cited from earlier work
[5] = test system: TNFalpha-activated NFκB activation and IL-8 expression; conditions: CF airway epithelial cells; cited from earlier work
[6] = test system: Wuhan influenza virus induced lung inflammation; test: Rodent influenza lung inflammation model, lung cytokines/chemokines by ELISA; type: in vivo, cotton rat
Protocol: Applicant previously conducted a study on a mammal, a rodent with induced lung inflammation from Wuhan influenza virus.
Lung tissue was harvested on day 7, and assayed in terms of pg/ml for iFN-Gamma, GRO/KC, MTP-2, TNF-ALPHA, IL-1B, MCP-1. TGF-Beta, and GM-CSF. Rodents lack IL-8, and instead have GRO/KC and MIP-2.
Methods: The assays for different cytokines and chemokines were performed with commercial micro-sandwich ELISA assays. (Searchlight System, Pierce-Thermo). The results shown are for 22 patients, including 14 females and 8 males.

[7] = test system: TNFα/NFκB signaling pathway; test: Reverse Phase Protein Microarray of IB3-1 and CFTR-repaired IB3-1/S9 cells; type: cell-based, human; conditions: ID90 concentrations; IB3-1 and IB3-1/S9 cells
Source text: as §1

[8] = test system: CF patients; test: Phase II clinical trial of digitoxin in cystic fibrosis: adverse events; conditions: for Pulm, upper_resp adverse events (cases) / Dermatolog adverse events / Gastrointestinal adverse events / General adverse events / Musculoskel adverse events / Neurological adverse events / Reproductive adverse events / Total (all) adverse events (cases): 28 days, n = 8; for Incidence Rate, all adverse events / Incidence Rate, pulmonary adverse events: person-time 224
Protocol: Experiment# 1.1. Study design and methods: The study was a randomized, double-blind, placebo controlled, repeat dosing escalation trial. Adults 18-45 years of age with a diagnosis of CF and meet Inclusion/exclusion criteria were selected for the trial. The 24 evaluable patients were studied at a single site, and randomized with respect to drug treatment and placebo at a ratio of 2:1, respectively. Screening included a 24 hour Holter monitor to screen for possible for baseline dysrhythmias. […] Dosing was once a day for 28 days with 8 patients in each group.
The inclusion criteria included (i) male or female, 18 to 45 years of age; (ii) confirmed diagnosis of CF by sweat test (a sweat chloride concentration≧60 meq/L), and a genotype consistent with a CF diagnosis; (iii) FEV 1, % PRED≧40%; (iv) clinically stable with no evidence of acute upper respiratory or lower respiratory tract infection or current pulmonary exacerbation; (v) ability to perform spirometry; (vi) weight≧45 kg at screening and at visit #1 (dosing).
During this period, subjects were not taking macrolide antibiotics.

[9] = test system: CF children; conditions: CF vs control children; cited from earlier work
[10] = 3, 10 and 30 mg/kg daily, lung harvested day 7

CC(=O)O[C@H]1CC[C@]2(C=O)[C@H]3CC[C@]4(C)[C@@H](C5=CC(=O)OC5)CC[C@]4(O)[C@@H]3CC[C@]2(O)C1 [Acetyl Strophanthidin]
IC50 [1]: 117 nM

C[C@]12CC[C@H](O)C[C@H]1CC[C@@H]1[C@@H]2CC[C@]2(C)[C@@H](C3=CC(=O)OC3)CC[C@]12O [Digitoxigenin]
IC50 ([1]; Homo sapiens, Epithelial cell): 73.6 nM

C[C@H]1O[C@@H](O[C@H]2[C@@H](O)C[C@H](O[C@H]3[C@@H](O)C[C@H](O[C@H]4CC[C@@]5(C)[C@H](CC[C@@H]6[C@@H]5CC[C@]5(C)[C@@H](C7=CC(=O)OC7)CC[C@]65O)C4)O[C@@H]3C)O[C@@H]2C)C[C@H](O)[C@@H]1O [Digitoxin]
bioavailable ([2]; given by mouth): 100% | bound to blood and tissue proteins ([2]; human, in vivo): 90% | interaction between TNF-alpha-activated TNFR and TRADD [3]: blocks | IC50 ([1]; Homo sapiens, Epithelial cell): ~0.9 nM | incidence of adverse events vs digoxin ([4]; U.S. 1995-1998 retrospective, heart failure patients): approximately three-fold lower incidence | side effects ([4]; control patients, ca. 30 nM in the circulation): only modest, or in many cases, undetectable side effects | TNFalpha-activated NFκB activation and IL-8 expression [5]: blocks | GRO/KC in lung tissue [6, 10]: significant reductions; also recorded: suppressed | IFN-gamma in lung tissue [6, 10]: significant reductions | IL-1B in lung tissue [6, 10]: No significant changes | MCP-1 in lung tissue [6, 10]: significant reductions | MIP-2 in lung tissue [6, 10]: significant reductions; also recorded: suppressed | TGF-B in lung tissue [6, 10]: No significant changes | TNF-alpha in lung tissue [6, 10]: significant reductions; also recorded: reduced | lung inflammation in rodent model ([6]; experimental model of lung inflammation): profound, dose-dependent reduction | CF-related constitutive phosphorylation of IKBα [7]: significantly blocked | CF-related constitutive phosphorylation of NFκB,p65 [7]: significantly blocked | phosphorylation of IKKα [7]: somewhat suppressed | Pulm, upper_resp adverse events (cases) ([8]; 0.05 mg by mouth daily): 9 | Dermatolog adverse events ([8]; 0.05 mg daily): 0 | Gastrointestinal adverse events ([8]; 0.05 mg daily): 5 | General adverse events ([8]; 0.05 mg daily): 3 | Musculoskel adverse events ([8]; 0.05 mg daily): 2 | Neurological adverse events ([8]; 0.05 mg daily): 8 | Reproductive adverse events ([8]; 0.05 mg daily): 1 | Total (all) adverse events (cases) ([8]; 0.05 mg daily): 29 | Incidence Rate, all adverse events ([8]; 0.05 mg daily): 0.1295 | Incidence Rate, pulmonary adverse events ([8]; 0.05 mg daily): 0.04018 | Inc. rate diff., all adverse events ([8]; 0.05 mg vs placebo): −0.008929 | Inc. rate diff., pulmonary adverse events ([8]; 0.05 mg vs placebo): −0.008929 | Prev. frac. pop, all adverse events ([8]; 0.05 mg vs placebo): 0.03571 | Prev. frac. pop, pulmonary adverse events ([8]; 0.05 mg vs placebo): 0.09091 | prev. frac. ex., all adverse events ([8]; 0.05 mg vs placebo): 0.06897 | prev. frac. ex., pulmonary adverse events ([8]; 0.05 mg vs placebo): 0.1818 | reduction in pulmonary, upper respiratory adverse events, significance ([8]; 0.05 mg/day vs placebo): not statistically significant | Pulm, upper_resp adverse events (cases) ([8]; 0.10 mg by mouth daily): 2 | Dermatolog adverse events ([8]; 0.10 mg daily): 1 | Gastrointestinal adverse events ([8]; 0.10 mg daily): 5 | General adverse events ([8]; 0.10 mg daily): 3 | Musculoskel adverse events ([8]; 0.10 mg daily): 1 | Neurological adverse events ([8]; 0.10 mg daily): 2 | Reproductive adverse events ([8]; 0.10 mg daily): 0 | Total (all) adverse events (cases) ([8]; 0.10 mg daily): 15 | Incidence Rate, all adverse events ([8]; 0.10 mg daily): 0.06696-3 and 0.06696 | Incidence Rate, pulmonary adverse events ([8]; 0.10 mg daily): 0.008929 | Inc. rate diff., all adverse events ([8]; 0.10 mg vs 0.05 mg): −0.0625 | Inc. rate diff., pulmonary adverse events ([8]; 0.10 mg vs 0.05 mg): −0.03125 | Prev. frac. pop, all adverse events ([8]; 0.10 mg vs 0.05 mg): 0.2414 | Prev. frac. pop, pulmonary adverse events ([8]; 0.10 mg vs 0.05 mg): 0.3889 | prev. frac. ex., all adverse events ([8]; 0.10 mg vs 0.05 mg): 0.4828 | prev. frac. ex., pulmonary adverse events ([8]; 0.10 mg vs 0.05 mg): 0.7778 | Inc. rate diff., all adverse events ([8]; 0.10 mg vs placebo): −0.05357 | Inc. rate diff., pulmonary adverse events ([8]; 0.10 mg vs placebo): −0.04018. | Prev. frac. pop, all adverse events ([8]; 0.10 mg vs placebo): 0.2222 | Prev. frac. pop, pulmonary adverse events ([8]; 0.10 mg vs placebo): 0.4091 | prev. frac. ex., all adverse events ([8]; 0.10 mg vs placebo): 0.4444 | prev. frac. ex., pulmonary adverse events ([8]; 0.10 mg vs placebo): 0.8182 | reduction in pulmonary, upper respiratory adverse events, significance ([8]; 0.10 mg/day (high dose) vs 0.05 mg/day (low dose)): statistically significant | reduction in pulmonary, upper respiratory adverse events, significance ([8]; 0.10 mg/day vs placebo): statistically significant | serious adverse events ([8]; clinical trial in CF patients): no serious adverse events

C[C@]12CC[C@H](O)C[C@H]1CC[C@@H]1[C@@H]2C[C@@H](O)[C@]2(C)[C@@H](C3=CC(=O)OC3)CC[C@]12O [Digoxigenin]
IC50 ([1]; Homo sapiens, Epithelial cell): 34.1 nM

C[C@H]1O[C@@H](O[C@H]2[C@@H](O)C[C@H](O[C@H]3[C@@H](O)C[C@H](O[C@H]4CC[C@@]5(C)[C@H](CC[C@@H]6[C@@H]5C[C@@H](O)[C@]5(C)[C@@H](C7=CC(=O)OC7)CC[C@]65O)C4)O[C@@H]3C)O[C@@H]2C)C[C@H](O)[C@@H]1O [Digoxin]
IC50 ([1]; Homo sapiens, Epithelial cell): 27 nM | IC50 [1]: 27.1 nM | exercise capacity or exercising cardiac function [9]: no difference

CO[C@H]1C[C@H](O[C@H]2CC[C@@]3(C)[C@H](CC[C@@H]4[C@@H]3CC[C@]3(C)[C@@H](C5=CC(=O)OC5)[C@@H](OC(C)=O)C[C@]43O)C2)O[C@@H](C)[C@@H]1O [Oleandrin]
IC50 ([1]; Homo sapiens, Epithelial cell): 2 nM

C[C@@H]1O[C@@H](O[C@H]2C[C@@H](O)[C@]3(CO)[C@H]4[C@H](O)C[C@]5(C)[C@@H](C6=CC(=O)OC6)CC[C@]5(O)[C@@H]4CC[C@]3(O)C2)[C@H](O)[C@H](O)[C@H]1O [Ouabain]
IC50 ([1]; Homo sapiens, Epithelial cell): 7.9 nM

Digitoxigenin 3,12-diAc
activity for suppression of IL-8 secretion [1]: Activity is altogether lost
